Measured values as given in patent US10988523B2, “Modified lipidated Relaxin B chain peptides and their therapeutic use” (Sanofi, priority 2018, dated 2021).
*1 amine or outer side, *2 acyl side, *3 side chain or, on linkers, in order; H or OH if unused. Where a SMILES comes first, the peptide text is derived from it. Primed or numbered codes have the meaning given here. Side-chain parts run from the residue outwards. [ ]: non-standard residue; d: D form. The star is where a group is joined. PEG12 = NCCOCCOCCOCCOCCOCCOCCOCCOCCOCCOCCOCCOCCC(=O)O; γGlu = O=C(O)[C@H](CCC(=O)[*:2])N[*:1]; Stearoyl = CCCCCCCCCCCCCCCCCC(=O)*; Palmitoyl = CCCCCCCCCCCCCCCC(=O)*; PEG4 = NCCOCCOCCOCCOCCC(=O)O; αMeK = C[C@](N)(CCCCN)C(=O)O; Nle = CCCC[C@H](N)C(=O)O; PEG2″ = not defined here; AEEA = NCCOCCOCC(=O)O; Aib = CC(C)(N)C(=O)O

Target: T1, RXFP1 (Homo sapiens, UniProt Q9HBX9)
T1 construct: OVCAR5 cells expressing endogenous RXFP1; endogenous in cells; host or cells: OVCAR5 cells
T1 sequence (Q9HBX9 1-757): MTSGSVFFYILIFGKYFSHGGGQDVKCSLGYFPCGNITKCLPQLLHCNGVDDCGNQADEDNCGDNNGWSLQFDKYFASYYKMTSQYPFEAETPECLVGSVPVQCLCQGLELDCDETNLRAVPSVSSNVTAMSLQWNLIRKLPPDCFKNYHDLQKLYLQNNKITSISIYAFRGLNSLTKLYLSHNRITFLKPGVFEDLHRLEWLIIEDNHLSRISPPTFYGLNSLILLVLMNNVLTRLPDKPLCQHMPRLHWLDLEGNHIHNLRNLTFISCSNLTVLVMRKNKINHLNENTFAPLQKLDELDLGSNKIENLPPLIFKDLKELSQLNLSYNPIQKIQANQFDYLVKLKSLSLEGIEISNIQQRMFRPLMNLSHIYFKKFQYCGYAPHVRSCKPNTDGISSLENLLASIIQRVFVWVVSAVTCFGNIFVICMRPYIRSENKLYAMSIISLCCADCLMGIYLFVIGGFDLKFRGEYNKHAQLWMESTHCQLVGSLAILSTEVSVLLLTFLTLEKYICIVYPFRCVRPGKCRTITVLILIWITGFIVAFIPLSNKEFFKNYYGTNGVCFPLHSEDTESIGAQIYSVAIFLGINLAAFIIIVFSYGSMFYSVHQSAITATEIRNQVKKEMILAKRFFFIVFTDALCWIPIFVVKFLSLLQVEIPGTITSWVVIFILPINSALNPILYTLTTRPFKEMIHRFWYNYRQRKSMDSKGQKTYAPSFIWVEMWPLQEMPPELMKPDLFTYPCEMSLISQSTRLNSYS
Experiment: OVCAR5 cAMP assay (HTRF), RXFP1 agonist activity
Type: cell-based
Settings: for EC50: OVCAR5 cells, cAMP HTRF, read-out: EC50 (nM), OVCAR 5 cells (cAMP); for Emax: OVCAR-5, read-out: EMax, OVCAR 5 cells (cAMP)
Summary of the method: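 cAMP accumulation readout: after 1 mM IBMX for 40 min, endogenous-RXFP1 OVCAR5 cells got rising peptide concentrations without FCS, 30 min, 37° C, then lysis with HTRF cAMP reagents. Nonlinear regression gave EC50; Emax expressed relative to H2-relaxin maximum, same occasion.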

[1] = maximal cAMP relative to H2-relaxin maximum (100%)

Row | EC50 | EMax, OVCAR 5 cells (cAMP) [1] | Emax [1] | Compound
1 | 4.4 nM | 88% |  | 127 (Ac-LEGREKVRAK(Ac)I[Aib][Aib]EG[Nle]STWS[Aib]RKLK([PEG2″-PEG2″-PEG2″-γGlu-γGlu-γGlu-Stearoyl])-NH2) [compound 127]
2 | 0.12 nM |  | 90% | CCCCCCCCCCCCCCCCCC(=O)N[C@@H](CCC(=O)N[C@@H](CCC(=O)N[C@@H](CCC(=O)NCCOCCOCC(=O)NCCOCCOCC(=O)NCCCC[C@H](NC(=O)[C@H](CCCCN)NC(=O)[C@H](CCCNC(=N)N)NC(=O)C(C)(C)NC(=O)[C@H](CO)NC(=O)[C@H](Cc1c[nH]c2ccccc12)NC(=O)[C@@H](NC(=O)[C@H](CO)NC(=O)[C@H](CCCC)NC(=O)CNC(=O)[C@H](CCC(=O)O)NC(=O)C(C)(C)NC(=O)C(C)(C)NC(=O)[C@@H](NC(=O)[C@H](CCCCNC(C)=O)NC(=O)[C@H](C)NC(=O)[C@H](CCCNC(=N)N)NC(=O)[C@@H](NC(=O)[C@H](CCCCN)NC(=O)[C@H](CCC(=O)O)NC(=O)[C@H](CCCNC(=N)N)NC(=O)CNC(=O)[C@H](CCC(=O)O)NC(=O)[C@H](CC(C)C)NC(C)=O)C(C)C)[C@@H](C)CC)[C@@H](C)O)C(N)=O)C(=O)O)C(=O)O)C(=O)O [compound 73] (Ac-LEGREKVRAK(Ac)I[Aib][Aib]EG[Nle]STWS[Aib]RKK([AEEA-AEEA-γGlu-γGlu-γGlu-Stearoyl])-NH2)
3 |  |  | 91% | CCCCCCCCCCCCCCCC(=O)N[C@@H](CCC(=O)N[C@@H](CCC(=O)N[C@@H](CCC(=O)NCCCC[C@H](NC(=O)COCCOCCNC(=O)COCCOCCNC(=O)COCCOCCNC(=O)COCCOCCNC(=O)[C@H](CCCCNC(C)=O)NC(=O)[C@H](C)NC(=O)[C@H](CCCNC(=N)N)NC(=O)[C@](C)(CCCCN)NC(=O)[C@H](CO)NC(=O)[C@H](Cc1ccccc1)NC(=O)[C@@H](NC(=O)[C@H](CO)NC(=O)[C@H](CCCC)NC(=O)CNC(=O)[C@H](CCC(=O)O)NC(=O)C(C)(C)NC(=O)C(C)(C)NC(=O)[C@@H](NC(=O)[C@H](CCCCNC(C)=O)NC(=O)[C@H](C)NC(=O)[C@H](CCCNC(=N)N)NC(=O)[C@@H](NC(=O)[C@H](CCCCN)NC(=O)[C@H](CCC(=O)O)NC(=O)[C@H](CCCNC(=N)N)NC(=O)CNC(=O)[C@H](CCC(=O)O)NC(=O)[C@H](CC(C)C)NC(C)=O)C(C)C)[C@@H](C)CC)[C@@H](C)O)C(N)=O)C(=O)O)C(=O)O)C(=O)O [compound 192] (Ac-LEGREKVRAK(Ac)I[Aib][Aib]EG[Nle]STFS[αMeK]RAK(Ac)[AEEA][AEEA][AEEA][AEEA]K([γGlu-γGlu-γGlu-Palmitoyl])-NH2)
4 |  |  | 88% | CCCCCCCCCCCCCCCCCC(=O)NCCCC[C@H](NC(=O)CCOCCOCCOCCOCCOCCOCCOCCOCCOCCOCCOCCOCCNC(=O)[C@H](CCCCNC(C)=O)NC(=O)[C@H](CCCCN)NC(=O)[C@H](CCCNC(=N)N)NC(=O)C(C)(C)NC(=O)[C@H](CO)NC(=O)[C@H](Cc1c[nH]c2ccccc12)NC(=O)[C@@H](NC(=O)[C@H](CO)NC(=O)[C@H](CCCC)NC(=O)CNC(=O)[C@H](CCC(=O)O)NC(=O)C(C)(C)NC(=O)C(C)(C)NC(=O)[C@@H](NC(=O)[C@H](CCC(N)=O)NC(=O)[C@H](C)NC(=O)[C@H](CCCNC(=N)N)NC(=O)[C@@H](NC(=O)[C@H](CCCCN)NC(=O)[C@H](CCC(=O)O)NC(=O)[C@H](CCCNC(=N)N)NC(=O)CNC(=O)[C@H](CCC(=O)O)NC(=O)[C@H](CC(C)C)NC(C)=O)C(C)C)[C@@H](C)CC)[C@@H](C)O)C(N)=O [compound 21] (Ac-LEGREKVRAQI[Aib][Aib]EG[Nle]STWS[Aib]RKK(Ac)[PEG12]K(Stearoyl)-NH2)
5 |  |  | 100% | CCCCCCCCCCCCCCCC(=O)N[C@@H](CCC(=O)NCCCC[C@H](NC(=O)[C@H](CCCCN)NC(=O)[C@H](CCCNC(=N)N)NC(=O)C(C)(C)NC(=O)[C@H](CO)NC(=O)[C@H](Cc1c[nH]c2ccccc12)NC(=O)[C@@H](NC(=O)[C@H](CO)NC(=O)[C@H](CCCC)NC(=O)CNC(=O)[C@H](CCC(=O)O)NC(=O)C(C)(C)NC(=O)C(C)(C)NC(=O)[C@@H](NC(=O)[C@H](CCC(N)=O)NC(=O)[C@H](C)NC(=O)[C@H](CCCNC(=N)N)NC(=O)[C@@H](NC(=O)[C@H](CCCCN)NC(=O)[C@H](CCC(=O)O)NC(=O)[C@H](CCCNC(=N)N)NC(=O)CNC(=O)[C@H](CCC(=O)O)NC(=O)[C@H](CC(C)C)NC(C)=O)C(C)C)[C@@H](C)CC)[C@@H](C)O)C(N)=O)C(=O)O [compound 2] (Ac-LEGREKVRAQI[Aib][Aib]EG[Nle]STWS[Aib]RKK([γGlu-Palmitoyl])-NH2)
6 | 0.14 nM |  | 87% | CCCCCCCCCCCCCCCCCC(=O)N[C@@H](CCC(=O)N[C@@H](CCC(=O)N[C@@H](CCC(=O)NCCOCCOCC(=O)NCCOCCOCC(=O)NCCOCCOCC(=O)NCCOCCOCC(=O)NCCOCCOCC(=O)NCCCC[C@H](NC(=O)[C@H](CCCCN)NC(=O)[C@H](CCCCN)NC(=O)[C@H](CCCNC(=N)N)NC(=O)C(C)(C)NC(=O)[C@H](CO)NC(=O)[C@H](Cc1c[nH]c2ccccc12)NC(=O)[C@@H](NC(=O)[C@H](CO)NC(=O)[C@H](CCCC)NC(=O)CNC(=O)[C@H](CCC(=O)O)NC(=O)C(C)(C)NC(=O)C(C)(C)NC(=O)[C@@H](NC(=O)[C@H](CCC(N)=O)NC(=O)[C@H](C)NC(=O)[C@H](CCCNC(=N)N)NC(=O)[C@@H](NC(=O)[C@H](CCCCN)NC(=O)[C@H](CCC(=O)O)NC(=O)[C@H](CCCNC(=N)N)NC(=O)CNC(=O)[C@H](CCC(=O)O)NC(=O)[C@H](CC(C)C)NC(C)=O)C(C)C)[C@@H](C)CC)[C@@H](C)O)C(N)=O)C(=O)O)C(=O)O)C(=O)O [compound 93] (Ac-LEGREKVRAQI[Aib][Aib]EG[Nle]STWS[Aib]RKKK([AEEA-AEEA-AEEA-AEEA-AEEA-γGlu-γGlu-γGlu-Stearoyl])-NH2)
7 |  |  | 88% | CCCCCCCCCCCCCCCCCC(=O)N[C@@H](CCC(=O)N[C@@H](CCC(=O)N[C@@H](CCC(=O)NCCCC[C@H](NC(=O)CCOCCOCCOCCOCCNC(=O)[C@H](CCCCNC(C)=O)NC(=O)[C@H](CCCCN)NC(=O)[C@H](CCCNC(=N)N)NC(=O)C(C)(C)NC(=O)[C@H](CO)NC(=O)[C@H](Cc1c[nH]c2ccccc12)NC(=O)[C@@H](NC(=O)[C@H](CO)NC(=O)[C@H](CCCC)NC(=O)CNC(=O)[C@H](CCC(=O)O)NC(=O)C(C)(C)NC(=O)C(C)(C)NC(=O)[C@@H](NC(=O)[C@H](CCCCNC(C)=O)NC(=O)[C@H](C)NC(=O)[C@H](CCCNC(=N)N)NC(=O)[C@@H](NC(=O)[C@H](CCCCN)NC(=O)[C@H](CCC(=O)O)NC(=O)[C@H](CCCNC(=N)N)NC(=O)CNC(=O)[C@H](CCC(=O)O)NC(=O)[C@H](CC(C)C)NC(C)=O)C(C)C)[C@@H](C)CC)[C@@H](C)O)C(N)=O)C(=O)O)C(=O)O)C(=O)O [compound 123] (Ac-LEGREKVRAK(Ac)I[Aib][Aib]EG[Nle]STWS[Aib]RKK(Ac)[PEG4]K([γGlu-γGlu-γGlu-Stearoyl])-NH2)
8 | 0.11 nM |  | 74% | CCCCCCCCCCCCCCCCCC(=O)N[C@@H](CCC(=O)N[C@@H](CCC(=O)N[C@@H](CCC(=O)N[C@@H](CCC(=O)NCCOCCOCC(=O)NCCOCCOCC(=O)NCCOCCOCC(=O)NCCCC[C@H](NC(=O)[C@H](CCCCN)NC(=O)[C@H](CCCCN)NC(=O)[C@H](CCCNC(=N)N)NC(=O)C(C)(C)NC(=O)[C@H](CO)NC(=O)[C@H](Cc1c[nH]c2ccccc12)NC(=O)[C@@H](NC(=O)[C@H](CO)NC(=O)[C@H](CCCC)NC(=O)CNC(=O)[C@H](CCC(=O)O)NC(=O)C(C)(C)NC(=O)C(C)(C)NC(=O)[C@@H](NC(=O)[C@H](CCC(N)=O)NC(=O)[C@H](C)NC(=O)[C@H](CCCNC(=N)N)NC(=O)[C@@H](NC(=O)[C@H](CCCCN)NC(=O)[C@H](CCC(=O)O)NC(=O)[C@H](CCCNC(=N)N)NC(=O)CNC(=O)[C@H](CCC(=O)O)NC(=O)[C@H](CC(C)C)NC(C)=O)C(C)C)[C@@H](C)CC)[C@@H](C)O)C(N)=O)C(=O)O)C(=O)O)C(=O)O)C(=O)O [compound 88] (Ac-LEGREKVRAQI[Aib][Aib]EG[Nle]STWS[Aib]RKKK([AEEA-AEEA-AEEA-γGlu-γGlu-γGlu-γGlu-Stearoyl])-NH2)
